Reference: PubChem BioAssay AID1963840 (Molecular Pharmacology Branch, DTP, NCI, 2024)

Test system: 695427-040-R-J1-PDC complex spheroid viability
Assay: Anticancer human tumor 695427-040-R-J1-PDC patient-derived colon adenocarcinoma cell line growth inhibition [POLQ]
Conditions: for IC50: curve of first compound; for viability, T/C: stronger effect = lower value
Protocol: Multicellular complex tumor spheroid response to Polymerase (POL) inhibitors (novobiocin, ART-558, RP6685) in combination with a variety of drugs and investigational agents in selected tumor cell lines
The POL inhibitors (novobiocin, ART-558, and RP6685) were evaluated both individually and in combination with standard of care and investigational anticancer small molecules within a complex spheroid model of solid tumors. . Complex spheroids include a stromal component modeled by human endothelial cells (HUVEC) and fibroblasts modeled by human mesenchymal stem cells (MSCs). The concentration ranges selected for each drug and investigational agent were based upon clinically achievable concentrations if the clinical Cmax of the agent was known.
Compounds. The drugs and investigational agents: novobiocin (NSC847541), ART-558 (NSC835418), RP-6685 (NSC848927), peposertib (NSC802822), ceralasertib (NSC780249), elimusertib (NSC800525), camonsertib (NSC841442), AZD-1390 (NSC803789), olaparib (NSC753686), talazoparib (NSC767125), rucaparib (NSC756644), sotorasib (NSC818433), MRTX-1133 (NSC836407), SN-38 (NSC673596), topotecan (NSC609699), epotoside (NSC141540), doxorubicin (NSC123127), gemcitabine (NSC613327), 5-fluorouracil (NSC19893), paclitaxel (NSC125973), vemurafenib (NSC761431), MSA-2 (NSC828583), SN-011 (NSC837082), adavosertib (NSC754352), prexasertib (NSC758257), carboplatin (NSC241240) and oxaliplatin (NSC266046), were obtained from the National Cancer Institute (NCI) Developmental Therapeutics Program Chemical Repository (21). The FDA-approved anticancer drug set is available from the Developmental Therapeutics Program at https://dtp.cancer.gov/organization/dscb/obtaining/. […] The stock solutions were prepared in dimethyl sulfoxide (DMSO, Sigma-Aldrich, St. Louis, MO, cat. D2650), except for the platinum compounds which were prepared in saline (Quality Biological, Gaithersburg, MD, cat. 114-055-101), at 800-fold the tested concentration and stored at -70 degrees C prior to their use. All drugs and investigational agents were tested over a range starting from a high concentration at or near the clinical Cmax and decreasing in half-log increments. If the clinical Cmax for an agent had not been determined, the highest concentration tested was 10 microM, except for SN-38, which was tested at a high concentration of 1 microM.
Cell Culture. All cells were maintained in an incubator at 37 degrees C and 5% CO2 with 95% humidity. The PDC lines were cultured according to standard operating procedures established by the NCI PDMR (https://pdmr.cancer.gov). Table 3 of the manuscript, lists the cell lines along with the number of the three cell types plated to form the mct-spheroids and media for tumor cell growth. After thawing, all PDC lines, except 997537-175-T-J1-PDC and 415267-285-R-J2-PDC, were cultured in Matrigel-coated flasks prepared with a working solution of 1X Ham's F-12 nutrient mix, without supplementation (Thermo Fisher Scientific, cat. 11765054), 100 U/mL penicillin-streptomycin (Thermo Fisher Scientific, cat. 15140122), and 2.5% Matrigel (Corning Inc., Corning, NY, cat. 354248) for the first three passages. The two PDC lines 997537-175-T-J1-PDC and 415267-285-R-J2-PDC were cultured on uncoated flasks. The 857933-349-R-J2-PDC line was cultured in 6C/Colon 1B media containing advanced DMEM/F-12 (Thermo Fisher Scientific, cat. 12634028), 10 mM HEPES (Thermo Fisher Scientific, cat. 15630080), 1X GlutaMAX supplement (Thermo Fisher Scientific, cat. 35050061), 0.1 mg/mL primocin (InvivoGen, San Diego, CA, cat. ant-pm-2), 10% defined fetal bovine serum, heat inactivated (HyClone Laboratories Inc., Logan, UT, cat. SH30070.03HI), 50% L-WRN conditioned media (ATCC, cat. CRL-3276), 1.25 mM N-Acetyl-L-cysteine (Sigma-Aldrich, cat. A9165), 10 mM nicotinamide (Sigma-Aldrich, cat. N0636), 1X B-27 supplement (Thermo Fisher Scientific, cat. 17504044), 1X N-2 supplement (Thermo Fisher Scientific, cat. […]

[1] = second compound 0.0316 µM, first compound 0.0316 µM
[2] = second compound 0.0316 µM, first compound 0.1 µM
[3] = second compound 0.0316 µM, first compound 0.316 µM
[4] = second compound 0.0316 µM, first compound 1 µM
[5] = second compound 0.0316 µM, first compound 3.16 µM
[6] = second compound 0.0316 µM, first compound 10 µM
[7] = second compound 0.1 µM, first compound 0.0316 µM
[8] = second compound 0.1 µM, first compound 0.1 µM
[9] = second compound 0.1 µM, first compound 0.316 µM
[10] = second compound 0.1 µM, first compound 1 µM
[11] = second compound 0.1 µM, first compound 3.16 µM
[12] = second compound 0.1 µM, first compound 10 µM
[13] = second compound 0.316 µM, first compound 0.0316 µM
[14] = second compound 0.316 µM, first compound 0.1 µM
[15] = second compound 0.316 µM, first compound 0.316 µM
[16] = second compound 0.316 µM, first compound 1 µM
[17] = second compound 0.316 µM, first compound 3.16 µM
[18] = second compound 0.316 µM, first compound 10 µM
[19] = second compound 1 µM, first compound 0.0316 µM
[20] = second compound 1 µM, first compound 0.1 µM
[21] = second compound 1 µM, first compound 0.316 µM
[22] = second compound 1 µM, first compound 1 µM
[23] = second compound 1 µM, first compound 3.16 µM
[24] = second compound 1 µM, first compound 10 µM
[25] = second compound 3.16 µM, first compound 0.0316 µM
[26] = second compound 3.16 µM, first compound 0.1 µM
[27] = second compound 3.16 µM, first compound 0.316 µM
[28] = second compound 3.16 µM, first compound 1 µM
[29] = second compound 3.16 µM, first compound 3.16 µM
[30] = second compound 3.16 µM, first compound 10 µM
[31] = second compound 10 µM, first compound 0.0316 µM
[32] = second compound 10 µM, first compound 0.1 µM
[33] = second compound 10 µM, first compound 0.316 µM
[34] = second compound 10 µM, first compound 1 µM
[35] = second compound 10 µM, first compound 3.16 µM
[36] = second compound 10 µM, first compound 10 µM
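Further: spheroids exposed to compounds for seven days.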
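Wherever viability, T/C is given: 100% = DMSO vehicle control viability.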

For `COc1cc(C2c3cc4c(cc3C(OC3OC5COC(C)OC5C(O)C3O)C3COC(=O)C23)OCO4)cc(OC)c1O` (centres undefined) + Cc1cccc(N(C)C(=O)C2C(O)CCN2c2nc(C)cc(C(F)(F)F)c2C#N)c1, the IC50 (second compound 0.0316 µM) was greater than 10 µM, the IC50 (second compound 0.1 µM) was greater than 10 µM and the IC50 (second compound 0.316 µM) was greater than 10 µM. It also gave an IC50 (second compound 1 µM) greater than 10 µM, an IC50 (second compound 3.16 µM) greater than 10 µM and an IC50 (second compound 10 µM) greater than 10 µM. The viability, T/C [1] was 104%, the viability, T/C [2] was 89.7% and the viability, T/C [3] was 107%. The viability, T/C [4] was 108%, the viability, T/C [5] was 92.3% and the viability, T/C [6] was 81.3%. For the same compound, the viability, T/C [7] was 96.4%, the viability, T/C [8] was 92.6% and the viability, T/C [9] was 102%. For the same compound, the viability, T/C [10] was 93.4%, the viability, T/C [11] was 96.1% and the viability, T/C [12] was 84.7%. For the same compound, the viability, T/C [13] was 95.7%, the viability, T/C [14] was 89.8% and the viability, T/C [15] was 102%. The viability, T/C [16] was 89.8%, the viability, T/C [17] was 93.2% and the viability, T/C [18] was 81.9%. The viability, T/C [19] was 96.2%, the viability, T/C [20] was 98.7% and the viability, T/C [21] was 89.9%. It also gave a viability, T/C [22] of 87.9%, a viability, T/C [23] of 91.9% and a viability, T/C [24] of 77.1%. It also gave a viability, T/C [25] of 92.8%, a viability, T/C [26] of 102% and a viability, T/C [27] of 93.4%. The viability, T/C [28] was 91.5%, the viability, T/C [29] was 89.6% and the viability, T/C [30] was 80.8%. For the same compound, the viability, T/C [31] was 98%, the viability, T/C [32] was 80.5% and the viability, T/C [33] was 90%. The viability, T/C [34] was 86.8%, the viability, T/C [35] was 84.3% and the viability, T/C [36] was 71.1%.
In the case of `Nc1ccn(C2OC(CO)C(O)C2(F)F)c(=O)n1` (centres undefined) + Cc1cccc(N(C)C(=O)C2C(O)CCN2c2nc(C)cc(C(F)(F)F)c2C#N)c1, the IC50 (second compound 0.0316 µM) is reported as greater than 10 µM, the IC50 (second compound 0.1 µM) is reported as greater than 10 µM and the IC50 (second compound 0.316 µM) is reported as greater than 10 µM. For the same compound, the IC50 (second compound 1 µM) was greater than 10 µM, the IC50 (second compound 3.16 µM) was greater than 10 µM and the IC50 (second compound 10 µM) was greater than 10 µM. It also gave a viability, T/C [1] of 83%, a viability, T/C [2] of 79.4% and a viability, T/C [3] of 76.4%. It also gave a viability, T/C [4] of 72.6%, a viability, T/C [5] of 68% and a viability, T/C [6] of 52.4%. The viability, T/C [7] was 93.8%, the viability, T/C [8] was 87.9% and the viability, T/C [9] was 77.4%. The viability, T/C [10] was 70.8%, the viability, T/C [11] was 63.5% and the viability, T/C [12] was 54.2%. For the same compound, the viability, T/C [13] was 103%, the viability, T/C [14] was 87.8% and the viability, T/C [15] was 71.2%. The viability, T/C [16] was 72.8%, the viability, T/C [17] was 66.3% and the viability, T/C [18] was 55.8%. It also gave a viability, T/C [19] of 90.9%, a viability, T/C [20] of 82.7% and a viability, T/C [21] of 71%. The viability, T/C [22] was 70.8%, the viability, T/C [23] was 66.5% and the viability, T/C [24] was 55.1%. For the same compound, the viability, T/C [25] was 91.8%, the viability, T/C [26] was 80.8% and the viability, T/C [27] was 75.5%. It also gave a viability, T/C [28] of 68.3%, a viability, T/C [29] of 70.2% and a viability, T/C [30] of 57.6%. For the same compound, the viability, T/C [31] was 84.9%, the viability, T/C [32] was 86.4% and the viability, T/C [33] was 75.6%. For the same compound, the viability, T/C [34] was 72.5%, the viability, T/C [35] was 69.5% and the viability, T/C [36] was 58.5%.
